Laboratory results taken from patent US10160755B2 (Plexxikon Inc., priority 2015, dated 2018).

Molecular target: T1, BA/F3-FLT3-ITD + F691L cells (Homo sapiens, UniProt P36888, F691L, cells depend on it, form not given)
T1 sequence (P36888 1-993 F691L): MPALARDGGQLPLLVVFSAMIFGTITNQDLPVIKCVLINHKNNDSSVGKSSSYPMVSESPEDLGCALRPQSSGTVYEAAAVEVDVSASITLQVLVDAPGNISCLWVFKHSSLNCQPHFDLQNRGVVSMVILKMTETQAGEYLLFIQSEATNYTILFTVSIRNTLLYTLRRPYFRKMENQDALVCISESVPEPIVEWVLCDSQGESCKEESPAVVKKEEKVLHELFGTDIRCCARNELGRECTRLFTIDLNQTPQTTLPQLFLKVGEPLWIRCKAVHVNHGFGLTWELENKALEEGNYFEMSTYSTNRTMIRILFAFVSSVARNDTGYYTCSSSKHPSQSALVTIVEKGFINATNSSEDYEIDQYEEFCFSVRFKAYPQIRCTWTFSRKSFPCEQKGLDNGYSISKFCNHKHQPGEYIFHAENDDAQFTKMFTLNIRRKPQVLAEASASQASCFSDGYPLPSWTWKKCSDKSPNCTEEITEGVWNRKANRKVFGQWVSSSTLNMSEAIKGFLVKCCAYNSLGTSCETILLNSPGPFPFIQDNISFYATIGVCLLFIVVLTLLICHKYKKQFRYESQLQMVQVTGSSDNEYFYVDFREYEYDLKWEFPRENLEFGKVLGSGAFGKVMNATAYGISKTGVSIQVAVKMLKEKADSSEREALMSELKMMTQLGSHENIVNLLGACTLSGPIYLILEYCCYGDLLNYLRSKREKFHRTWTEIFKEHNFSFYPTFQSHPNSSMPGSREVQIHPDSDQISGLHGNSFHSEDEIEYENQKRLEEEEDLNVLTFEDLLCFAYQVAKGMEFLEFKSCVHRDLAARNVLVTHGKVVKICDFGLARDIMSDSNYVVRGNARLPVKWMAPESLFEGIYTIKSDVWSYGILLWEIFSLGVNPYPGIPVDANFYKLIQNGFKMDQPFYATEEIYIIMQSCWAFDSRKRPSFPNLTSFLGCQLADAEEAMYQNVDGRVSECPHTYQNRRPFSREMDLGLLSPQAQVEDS
Assay: BA/F3-FLT3-ITD + F691L cell proliferation assay (CellTiter-Glo)
Format: cell-based, murine
Conditions: BaF3 FLT3 ITD/F691L cells; read-out: Cell Activity (IC50 μM) BaF3_FLT3_ITD/F691L
Procedure, shortened: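 Three-day growth assay, IC50 from CellTiter-Glo ATP luminescence vs concentration. Compounds at 10 to 0.0046 μM (1:3 steps, final DMSO 0.2%) on 1×10^4 cells/well. Cells are IL-3-independent BA/F3 lines engineered to express full-length FLT3-ITD with the D835Y or the F691L mutation.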

Compound	GI50 [µM]
O=S1(=O)CCCN1c1cccc(-c2cnc3[nH]cc(-c4ccc5ncn(C6CCCNC6)c5c4)c3n2)c1 (stereo not shown) [P-273, 2-[3-[7-[3-(3-piperidyl)benzimidazol-5-yl]-5H-pyrrolo[2,3-b]pyrazin-2-yl]phenyl]-1,2-thiazolidine 1,1-dioxide]	0.0001 to 1
N#Cc1cc(-c2cnc3[nH]cc(-c4ccc5ncn(C6CCCNC6)c5c4)c3n2)ccc1F (stereo not shown) [P-238, 2-fluoro-5-[7-[3-(3-piperidyl)benzimidazol-5-yl]-5H-pyrrolo[2,3-b]pyrazin-2-yl]benzonitrile]	0.0001 to 1
c1cc(-c2cnc3[nH]cc(-c4ccc5ncn(C6CCCNC6)c5c4)c3c2)cc(N2CCOCC2)n1 (stereo not shown) [P-223, 4-[4-[3-[3-(3-piperidyl)benzimidazol-5-yl]-1H-pyrrolo[2,3-b]pyridin-5-yl]-2-pyridyl]morpholine]	0.0001 to 1
O=S(=O)(c1cccc(-c2cnc3[nH]cc(-c4ccc5ncn(C6CCCNC6)c5c4)c3n2)c1)N1CCCC1 (stereo not shown) [P-237, 7-[3-(3-piperidyl)benzimidazol-5-yl]-2-(3-pyrrolidin-1-ylsulfonylphenyl)-5H-pyrrolo[2,3-b]pyrazine]	0.0001 to 1
O=S1(=O)CCCCN1c1cccc(-c2cnc3[nH]cc(-c4ccc5ncn(C6CCCNC6)c5c4)c3c2)c1 (stereo not shown) [P-224, 2-[3-[3-[3-(3-piperidyl)benzimidazol-5-yl]-1H-pyrrolo[2,3-b]pyridin-5-yl]phenyl]thiazinane 1,1-dioxide]	0.0001 to 1
C#Cc1cnc2[nH]cc(-c3ccc4ncn(C5CCCNC5)c4c3)c2n1 (stereo not shown) [P-270, 2-ethynyl-7-[3-(3-piperidyl)benzimidazol-5-yl]-5H-pyrrolo[2,3-b]pyrazine]	0.0001 to 1
CCCS(=O)(=O)Nc1cccc(-c2cnc3[nH]cc(-c4ccc5ncn(C6CCCNC6)c5c4)c3c2)c1 (stereo not shown) [P-217, N-[3-[3-[3-(3-piperidyl)benzimidazol-5-yl]-1H-pyrrolo[2,3-b]pyridin-5-yl]phenyl]propane-1-sulfonamide]	0.0001 to 1
c1cc(N2CCOCC2)ccc1-c1cnc2[nH]cc(-c3ccc4ncn(C5CCCNC5)c4c3)c2n1 (stereo not shown) [P-101, 4-[4-[7-[3-(3-piperidyl)benzimidazol-5-yl]-5H-pyrrolo[2,3-b]pyrazin-2-yl]phenyl]morpholine]	0.0001 to 1
COc1cc(-c2cnc3[nH]cc(-c4ccc5ncn(C6CCCNC6)c5c4)c3n2)cc(OC)n1 (stereo not shown) [P-195, 2-(2,6-dimethoxy-4-pyridyl)-7-[3-(3-piperidyl)benzimidazol-5-yl]-5H-pyrrolo[2,3-b]pyrazine]	0.0001 to 1
FC(F)(F)Oc1cccc(C#Cc2cnc3[nH]cc(-c4ccc5ncn(C6CCCNC6)c5c4)c3n2)c1 (stereo not shown) [P-246, 7-[3-(3-piperidyl)benzimidazol-5-yl]-2-[2-[3-(trifluoromethoxy)phenyl]ethynyl]-5H-pyrrolo[2,3-b]pyrazine]	1 to 10
CC(C)S(=O)(=O)Nc1cccc(-c2cnc3[nH]cc(-c4ccc5ncn(C6CCCNC6)c5c4)c3c2)c1 (stereo not shown) [P-215, N-[3-[3-[3-(3-piperidyl)benzimidazol-5-yl]-1H-pyrrolo[2,3-b]pyridin-5-yl]phenyl]propane-2-sulfonamide]	0.0001 to 1
O=S1(=O)CCCCN1c1cccc(-c2cnc3[nH]cc(-c4ccc5ncn(C6CCCNC6)c5c4)c3n2)c1 (stereo not shown) [P-253, 2-[3-[7-[3-(3-piperidyl)benzimidazol-5-yl]-5H-pyrrolo[2,3-b]pyrazin-2-yl]phenyl]thiazinane 1,1-dioxide]	0.0001 to 1
O=C(Nc1cccc(F)c1)c1cnc2[nH]cc(-c3ccc4ncn(C5CCCNC5)c4c3)c2c1 (stereo not shown) [P-178, N-(3-fluorophenyl)-3-[3-(3-piperidyl)benzimidazol-5-yl]-1H-pyrrolo[2,3-b]pyridine-5-carboxamide]	0.0001 to 1

More lines, now with the values ahead:

GI50 [µM]	Compound
0.0001 to 1	COc1ncccc1C#Cc1cnc2[nH]cc(-c3ccc4ncn(C(C)(C)C)c4c3)c2n1 [P-250, 7-(3-tert-butylbenzimidazol-5-yl)-2-[2-(2-methoxy-3-pyridyl)ethynyl]-5H-pyrrolo[2,3-b]pyrazine]
0.0001 to 1	CC(C)(C)n1cnc2ccc(-c3c[nH]c4ncc(-c5ccc(F)c(C#N)c5)nc34)cc21 [P-230, 5-[7-(3-tert-butylbenzimidazol-5-yl)-5H-pyrrolo[2,3-b]pyrazin-2-yl]-2-fluoro-benzonitrile]
0.0001 to 1	COc1ncc(-c2cnc3[nH]cc(-c4ccc5ncn(C(C)(C)C)c5c4)c3n2)cn1 [P-263, 7-(3-tert-butylbenzimidazol-5-yl)-2-(2-methoxypyrimidin-5-yl)-5H-pyrrolo[2,3-b]pyrazine]
0.0001 to 1	CC(C)(C)n1cnc2ccc(-c3c[nH]c4ncc(-c5cnn(C(F)F)c5)cc34)cc21 [P-251, 1-tert-butyl-6-[5-[1-(difluoromethyl)pyrazol-4-yl]-1H-pyrrolo[2,3-b]pyridin-3-yl]benzimidazole]
0.0001 to 1	COc1cnc2[nH]cc(-c3cnc4ncn(Cc5cc(C)on5)c4c3)c2c1 [P-144, 3-[[6-(5-methoxy-1H-pyrrolo[2,3-b]pyridin-3-yl)imidazo[4,5-b]pyridin-1-yl]methyl]-5-methyl-isoxazole]
0.0001 to 1	CC(C)(C)n1cnc2ccc(-c3c[nH]c4ncc(-c5cccc(N6CCCCS6(=O)=O)c5)nc34)cc21 [P-227, 2-[3-[7-(3-tert-butylbenzimidazol-5-yl)-5H-pyrrolo[2,3-b]pyrazin-2-yl]phenyl]thiazinane 1,1-dioxide]
0.0001 to 1	COc1cc(C(=O)Nc2cnc3[nH]cc(-c4ccc5ncn(C(C)(C)C)c5c4)c3c2)ccn1 [P-245, N-[3-(3-tert-butylbenzimidazol-5-yl)-1H-pyrrolo[2,3-b]pyridin-5-yl]-2-methoxy-pyridine-4-carboxamide]
0.0001 to 1	CC(C)n1cnc2ccc(-c3c[nH]c4ncc(-c5cnn(C(F)F)c5)cc34)cc21 [P-267, 5-[1-(difluoromethyl)pyrazol-4-yl]-3-(3-isopropylbenzimidazol-5-yl)-1H-pyrrolo[2,3-b]pyridine]
0.0001 to 1	COc1cnc2[nH]cc(-c3ccc4ncn(-c5ccc(Cl)cc5)c4c3)c2c1 [P-104, 1-(4-chlorophenyl)-6-(5-methoxy-1H-pyrrolo[2,3-b]pyridin-3-yl)benzimidazole]
1 to 10	CC(C)(C)n1cnc2ccc(-c3c[nH]c4ncc(C#Cc5cccc(OC(F)(F)F)c5)nc34)cc21 [P-249, 7-(3-tert-butylbenzimidazol-5-yl)-2-[2-[3-(trifluoromethoxy)phenyl]ethynyl]-5H-pyrrolo[2,3-b]pyrazine]
0.0001 to 1	C#Cc1cnc2[nH]cc(-c3ccc4ncn(C(C)(C)C)c4c3)c2n1 [P-259, 7-(3-tert-butylbenzimidazol-5-yl)-2-ethynyl-5H-pyrrolo[2,3-b]pyrazine]
0.0001 to 1	CC(C)n1cnc2ccc(-c3c[nH]c4ncc(-c5cnn(CC(F)(F)F)c5)cc34)cc21 [P-268, 1-isopropyl-6-[5-[1-(2,2,2-trifluoroethyl)pyrazol-4-yl]-1H-pyrrolo[2,3-b]pyridin-3-yl]benzimidazole]
0.0001 to 1	Cn1cnc2ccc(-c3c[nH]c4ncc(-c5cnn(CC(F)(F)F)c5)cc34)cc21 [P-175, 1-methyl-6-[5-[1-(2,2,2-trifluoroethyl)pyrazol-4-yl]-1H-pyrrolo[2,3-b]pyridin-3-yl]benzimidazole]
0.0001 to 1	COc1ncc(-c2cnc3[nH]cc(-c4ccc5ncn(C(C)(C)C)c5c4)c3c2)cn1 [P-265, 1-(tert-butyl)-6-(5-(2-methoxypyrimidin-5-yl)-1H-pyrrolo[2,3-b]pyridin-3-yl)-1H-benzo[d]imidazole]
0.0001 to 1	CC(C)S(=O)(=O)Nc1cccc(-c2cnc3[nH]cc(-c4ccc5ncn(C(C)(C)C)c5c4)c3n2)c1 [P-232, N-[3-[7-(3-tert-butylbenzimidazol-5-yl)-5H-pyrrolo[2,3-b]pyrazin-2-yl]phenyl]propane-2-sulfonamide]
0.0001 to 1	CC(C)(C)n1cnc2ccc(-c3c[nH]c4ncc(-c5cccc(N6CCOCC6)c5)nc34)cc21 [P-226, 4-[3-[7-(3-tert-butylbenzimidazol-5-yl)-5H-pyrrolo[2,3-b]pyrazin-2-yl]phenyl]morpholine]
0.0001 to 1	COc1cnc2[nH]cc(-c3ccc4ncn(-c5cccc(Cl)c5)c4c3)c2c1 [P-105, 1-(3-chlorophenyl)-6-(5-methoxy-1H-pyrrolo[2,3-b]pyridin-3-yl)benzimidazole]
0.0001 to 1	COc1cc(-c2cnc3[nH]cc(-c4ccc5ncn(C(C)C)c5c4)c3n2)ccn1 [P-113, 7-(3-isopropylbenzimidazol-5-yl)-2-(2-methoxy-4-pyridyl)-5H-pyrrolo[2,3-b]pyrazine]
